Test results as given in patent EP2114387B1, “USE OF COMPOSITIONS CONTAINING AT LEAST ONE LIGNANE AND/OR NEOLIGNANE FOR MODULATING TESTOSTERONE LEVELS” (Europe Finances, priority 2007, dated 2008).
Where two headings read alike, the source gives them in different places.

Experiments:
5-α reductase type II [1] = molecular target: T1, 5-α reductase type II (Homo sapiens, UniProt P31213); test: Inhibition of 5-alpha-reductase type II in HEK II cells (conversion of [4-14C]-androstenedione to dihydroandrostenedione); type: cell-based; conditions: for % inhibition de la 5-α reductase type II: n.i. = pas d'inhibition observée
T1 construct: expressed in transfected cells; host or cells: HEK II cells (HEK line kept under Geneticin-418 selection)
T1 sequence (P31213 1-254): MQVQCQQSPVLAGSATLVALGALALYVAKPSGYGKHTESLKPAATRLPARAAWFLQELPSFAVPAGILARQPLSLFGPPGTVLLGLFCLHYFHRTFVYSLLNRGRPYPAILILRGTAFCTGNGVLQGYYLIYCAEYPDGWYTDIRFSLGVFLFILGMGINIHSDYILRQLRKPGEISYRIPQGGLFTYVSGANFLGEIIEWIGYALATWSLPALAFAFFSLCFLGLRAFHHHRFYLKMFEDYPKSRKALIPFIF
Description: Les cellules de type HEK I et HEK II ont été utilisées dans du DMEM (pH 7.4) avec 10 % FCS, Penicillin/Streptomycin (100 U/mL and 100 µg/mL) et 0.5 mg/mL de Geneticin-418-sulfate. Les tests d'inhibition ont été réalisés à des concentrations cellulaires de […] cellules par 1.9 cm^2 et incubées pendant 20 h, 5 % CO2 à 37 °C.
Les composés sont dissous dans le DMSO et dilués avec le DMEM pour atteindre les concentrations finales de 100 µM, 10 µM et 1 µM.
Les mesures ont été réalisées grâce à un Phospholmager et les spots correspondant au [4-14C]-androstenedione (A) et au [4-14C]-dihydroandrostenedione (DHA) furent enregistrés avec le logiciel correspondant.
Les calculs ont été réalisés selon la formule suivante: % conversion = (PSL(DHA))/(PSL(DHA+A)) × 100 [formula]
Le pourcentage d'inhibition a été calculé sur une moyenne de deux mesures.
La référence est le finastéride, un médicament inhibiteur des 5α-reductase qui est utilisé comme contrôle positif à deux concentrations de 800 nM et 100 nM, correspondant à l'IC50 du finasteride pour la 5α-reductase de type I et la 5α-reductase de type II, respectivement.

5-α reductase type II [2] = molecular target: T1, 5-α reductase type II; conditions: reference value used to choose the positive control concentration; read-out: IC50 du finasteride; cited from earlier work
5-α reductase type I [3] = molecular target: T2, 5-α reductase type I (Homo sapiens, UniProt P18405); conditions: reference value used to choose the positive control concentration; read-out: IC50 du finasteride; cited from earlier work
T2 construct: expressed in transfected cells; host or cells: HEK I cells (HEK line kept under Geneticin-418 selection)
T2 sequence (P18405 1-259): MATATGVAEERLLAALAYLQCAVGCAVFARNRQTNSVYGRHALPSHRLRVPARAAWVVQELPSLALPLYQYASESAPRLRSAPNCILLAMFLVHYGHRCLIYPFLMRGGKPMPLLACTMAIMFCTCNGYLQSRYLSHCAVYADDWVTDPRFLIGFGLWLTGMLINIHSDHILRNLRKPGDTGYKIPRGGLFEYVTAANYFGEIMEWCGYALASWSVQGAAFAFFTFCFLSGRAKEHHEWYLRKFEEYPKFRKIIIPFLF

5-α reductase type I [4] = molecular target: T2, 5-α reductase type I; test: Inhibition of 5-alpha-reductase type I in HEK I cells (conversion of [4-14C]-androstenedione to dihydroandrostenedione); type: cell-based
Description: Les cellules de type HEK I et HEK II ont été utilisées dans du DMEM (pH 7.4) avec 10 % FCS, Penicillin/Streptomycin (100 U/mL and 100 µg/mL) et 0.5 mg/mL de Geneticin-418-sulfate. Les tests d'inhibition ont été réalisés à des concentrations cellulaires de 0.25 x 106 cellules par 1.9 cm^2 et incubées pendant 20 h, 5 % CO2 à 37 °C.

[5] = tested on: taux plasmatique de testostérone; test: Plasma testosterone level in mice after chronic i.p. administration (ELISA); type: in vivo, souris SWISS; conditions: young male mice, figure 1, result in words
Description: […] […] • Letrozole • Dose étudiée : 2 mg/kg. • Mise en solution extemporanée dans le méthylcellulose • Honokiol • Doses étudiée : • Honokiol : 0.01, 0.05, 0.5, 2, 5, 10 mg/kg. • Mise en solution extemporanée dans le méthylcellulose • Voie d'administration : […].). • Volume d'injection : 10 ml/kg. Les dosages ont é[…] selon le protocole du kit ELISA commercialisé par la société AbCys S.A., France.

| % inhibition de la 5-α reductase type II (5-α reductase type II [1]; 1 µM) | % inhibition de la 5-α reductase type II (5-α reductase type II [1]; 10 µM) | % inhibition de la 5-α reductase type II (5-α reductase type II [1]; 100 µM) | affinité pour la 5-α réductase de type II (5-α reductase type II [1]; result in words) | inhibition at 1 µM (5-α reductase type I [4]; 1 µM, mean of two measurements, read-out: % inhibition de la 5-α reductase type I) | inhibition at 10 µM (5-α reductase type I [4]; 10 µM, mean of two measurements, read-out: % inhibition de la 5-α reductase type I) | inhibition at 100 µM (5-α reductase type I [4]; 100 µM, mean of two measurements, read-out: % inhibition de la 5-α reductase type I) | IC50 (5-α reductase type I [4]; estimate from the dose-dependent inhibition) | SMILES | inhibition at 0.1 µM (5-α reductase type II [1]; 100 nM, mean of two measurements, read-out: % inhibition de la 5-α reductase type II) | inhibition at 0.8 µM (5-α reductase type II [1]; 800 nM, mean of two measurements, read-out: % inhibition de la 5-α reductase type II) | IC50 (5-α reductase type II [2]) | IC50 (5-α reductase type I [3]) | inhibition at 0.1 µM (5-α reductase type I [4]; 100 nM, mean of two measurements, read-out: % inhibition de la 5-α reductase type I) | inhibition at 0.8 µM (5-α reductase type I [4]; 800 nM, mean of two measurements, read-out: % inhibition de la 5-α reductase type I) | taux de testostérone plasmatique [5] | sélectivité 5-α réductase de type I / type II (5-α reductase type I [4]; conclusion in words) |
| --- | --- | --- | --- | --- | --- | --- | --- | --- | --- | --- | --- | --- | --- | --- | --- | --- |
| – | – | – | – | – | – | – | – | CC(C)(C)NC(=O)[C@H]1CC[C@H]2[C@@H]3CC[C@H]4NC(=O)C=C[C@]4(C)[C@H]3CC[C@]12C [Finasteride, finastéride, reference compound] | 55% | 89% | 100 nM | 800 nM | 11% | 48% | – | – |
| n.i. | n.i. | n.i. | aucune affinité n'est observée | 1% | 11% | 64% | ~80000 nM | C=CCc1ccc(O)c(-c2ccc(O)c(CC=C)c2)c1 [Honokiol, honokiol] | – | – | – | – | – | – | modulation du taux de testostérone en fonction des doses administrées | inhibiteur sélectif de la 5-α réductase de type I |
